Data as given in patent publication US20210290648A1, “Potentiation of B-Lactam Antibiotics and B-Lactam/B-Lactamase Inhibitor Combinations Against Multidrug and Extensively Drug-Resistant Pseudomonas Aeruginosa Using Non-Ribosomal Tobramycin-Cyclam Conjugates” (University of Manitoba, priority 2018, published 2021).
Like-named read-outs stand apart in the source and are kept apart here.

What was measured:
PA 259 = assay: Checkerboard combination study / MIC; format: cell-based, Pseudomonas aeruginosa
PA 260 = assay: Checkerboard combination study / MIC; format: cell-based, Pseudomonas aeruginosa
PA 264 = assay: Checkerboard combination study / MIC; format: cell-based, Pseudomonas aeruginosa
PAO750 = format: cell-based, Pseudomonas aeruginosa
Outline: (§1)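 PAO200 is a mexAB-oprM deletion strain; PAO750 lacks five RND pumps and OpmH. Checkerboard combinations read at 590 nm, FIC index summed from antibiotic and adjuvant FICs.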

PAO200 = format: cell-based, Pseudomonas aeruginosa
Outline: as §1

[1] = test system: MDR/XDR P. aeruginosa clinical isolates; assay: MIC and checkerboard, panel of clinical isolates; format: cell-based, Pseudomonas aeruginosa; conditions: antibiotic + compound 2 (8.7 μM); resistant P. aeruginosa isolates
PA 101885 = assay: Checkerboard combination study / MIC; format: cell-based, Pseudomonas aeruginosa
[2] = test system: MDR PA101885-challenged larvae; assay: Galleria mellonella infection model, efficacy; format: in vivo; conditions: after 24 h
Experimental: In vivo synergistic effects were determined using Galleria mellonella infection model, as previously described (20). Briefly, worms were purchased from The Worm Lady® Live Feeder (ON, Canada), stored in their natural habitat at 16° C., and used within 10 days of delivery. The worms (average weight of 250 mg) were used for tolerability and efficacy studies. Tolerability study was performed by injecting 10 μL of antimicrobial agents only at concentrations equivalent to 100 mg/kg or 200 mg/kg. The worms (ten in each group) were incubated at 37° C. and monitored for 96 h. For efficacy studies, the virulence and bacterial load required to kill 100% of the worms within 12-18 h (with no treatment) was first determined, which is approximately 5 CFU. Overnight grown culture of respective MDR P. aeruginosa isolate was standardized to 0.5 McFarland standard and diluted in PBS to a final concentration of 5×10^2CFU/mL. 10 μL of this solution (5 CFU) was injected into each worm and incubated for 3 h at 37° C. […] Worms treated with 10 μL PBS or high concentrations of test antibiotics served as negative and positive control, respectively. The worms were incubated at 37° C. in Petri dishes lined with filter paper and scored for survivability every 6 h for up to 48 h. This experiment was repeated to give a total of thirty worms (n=30) in each case. Survival data curves were plotted using Kaplan-Meier survival analysis.

PA 262 = assay: Checkerboard combination study / MIC; format: cell-based, Pseudomonas aeruginosa
PA 91433 = assay: Checkerboard combination study / MIC; format: cell-based, Pseudomonas aeruginosa; conditions: PA 91433
WT P. aeruginosa PAO1 = assay: Checkerboard combination study / MIC; format: cell-based, Pseudomonas aeruginosa; conditions: for MIC: Pseudomonas aeruginosa
PA 114228 = assay: Checkerboard combination study / MIC; format: cell-based, Pseudomonas aeruginosa
PA 100036 = assay: Checkerboard combination study / MIC; format: cell-based, Pseudomonas aeruginosa
PA 101243 = assay: Checkerboard combination study / MIC; format: cell-based, Pseudomonas aeruginosa; conditions: PA 101243
[3] = MIC of antibiotic combined with compound 2

Question: Which results are given for C[C@@H](O)[C@H]1C(=O)N2C(C(=O)O)=C(S[C@@H]3CN[C@H](C(=O)N(C)C)C3)[C@H](C)[C@H]12 [Meropenem]?
Answer: MICCombination (antibiotic) (PA 259; [3]): 256 µg/mL; FICI (PA 259; antibiotic + compound 2): <0.31; MICAntibiotic (PA 259; antibiotic alone): 1024 µg/mL; FICAntibiotic (PA 259; with compound 2): 0.250; MICCombination (antibiotic) (PA 260; [3]): 1 µg/mL; FICI (PA 260; antibiotic + compound 2): <0.16; MICAntibiotic (PA 260; antibiotic alone): 8 µg/mL; FICAntibiotic (PA 260; with compound 2): 0.125; MICCombination (antibiotic) (PA 264; [3]): 2 µg/mL; FICI (PA 264; antibiotic + compound 2): <0.05; MICAntibiotic (PA 264; antibiotic alone): 64 µg/mL; FICAntibiotic (PA 264; with compound 2): 0.0313; MIC of antibiotic + Compound 2 in PAO750 (PAO750; + compound 2 ≤8.7 μM, PAO750): 0.25 µg/mL; fold change of MIC + Compound 2 in PAO750 (PAO750; + compound 2 ≤8.7 μM, PAO750): 4; MIC of antibiotic alone in PAO750 (PAO750; antibiotic alone, PAO750 efflux-deficient): 1 µg/mL; MIC of antibiotic + Compound 2 in PAO200 (PAO200; + compound 2 ≤8.7 μM, PAO200): 0.063 µg/mL; fold change of MIC + Compound 2 in PAO200 (PAO200; + compound 2 ≤8.7 μM, PAO200): 4; MIC of antibiotic alone in PAO200 (PAO200; antibiotic alone, PAO200 efflux-deficient): 0.25 µg/mL; resistant isolates reaching CLSI clinical breakpoint [1]: eight out of nine; MICCombination (antibiotic) (PA 101885; [3]): 0.5 µg/mL; FICI (PA 101885; antibiotic + compound 2): <0.16; MICAntibiotic (PA 101885; antibiotic alone): 4 µg/mL; FICAntibiotic (PA 101885; with compound 2): 0.125; mortality of larvae, monotherapy ([2]; aztreonam […], meropenem 37.5 mg/kg, compound 2 100 mg/kg): 100%; survival of larvae ([2]; meropenem 37.5 mg/kg single dose): 0%; survival of larvae ([2]; meropenem 50 mg/kg single dose): 80%; MICCombination (antibiotic) (PA 262; [3]): 2 µg/mL; FICI (PA 262; antibiotic + compound 2): <0.13; MICAntibiotic (PA 262; antibiotic alone): 32 µg/mL; FICAntibiotic (PA 262; with compound 2): 0.063; MICCombination (antibiotic) (PA 91433; [3]): 0.25 µg/mL; FICI (PA 91433; antibiotic + compound 2): <0.03; MICAntibiotic (PA 91433; antibiotic alone): 16 µg/mL; FICAntibiotic (PA 91433; with compound 2): 0.016; MIC of antibiotic + Compound 2 in PAO1 (WT P. aeruginosa PAO1; + compound 2 ≤8.7 μM, PAO1): 0.25 µg/mL; fold change of MIC + Compound 2 in PAO1 (WT P. aeruginosa PAO1; + compound 2 ≤8.7 μM, PAO1): 4; MIC (WT P. aeruginosa PAO1; PAO1, 18 h, antibiotic alone, WT PAO1 (Table 2), read-out: MIC alone): 1 µg/mL; MIC (WT P. aeruginosa PAO1; PAO1, time-kill study text and FIG. 7 legend, read-out: MIC against WT PAO1): 1 µg/mL; FICI in the presence of ≤10 μM of 1 (WT P. aeruginosa PAO1; antibiotic + compound 1, WT PAO1): 0.25 (0.25); MIC of Antibiotics in the presence of ≤10 μM of 1 (WT P. aeruginosa PAO1; antibiotic + compound 1 ≤10 μM, WT PAO1): 0.25 (0.25) μg/ml; FICI in the presence of ≤10 μM of 2 (WT P. aeruginosa PAO1; antibiotic + compound 2, WT PAO1): 0.26; MIC of Antibiotics in the presence of ≤10 μM of 2 (WT P. aeruginosa PAO1; antibiotic + compound 2 ≤10 μM, WT PAO1): 0.25 µg/mL; FICI in the presence of ≤10 μM of 3 (WT P. aeruginosa PAO1; antibiotic + compound 3, WT PAO1): 0.50; MIC of Antibiotics in the presence of ≤10 μM of 3 (WT P. aeruginosa PAO1; antibiotic + compound 3 ≤10 μM, WT PAO1): 0.5 µg/mL; MIC of antibiotic alone in PAO1 (WT P. aeruginosa PAO1; antibiotic alone, PAO1 wild-type (Table 4)): 1 µg/mL; MICCombination (antibiotic) (PA 114228; [3]): 2 µg/mL; FICI (PA 114228; antibiotic + compound 2): <0.28; MICAntibiotic (PA 114228; antibiotic alone): 8 µg/mL; FICAntibiotic (PA 114228; with compound 2): 0.250; MICCombination (antibiotic) (PA 100036; [3]): 2 µg/mL; FICI (PA 100036; antibiotic + compound 2): <0.51; MICAntibiotic (PA 100036; antibiotic alone): 4 µg/mL; FICAntibiotic (PA 100036; with compound 2): 0.500; MICCombination (antibiotic) (PA 101243; [3]): 2 µg/mL; FICI (PA 101243; antibiotic + compound 2): <0.25; MICAntibiotic (PA 101243; antibiotic alone): 8 µg/mL; FICAntibiotic (PA 101243; with compound 2): 0.250
